Test results from patent publication US11639350B2, “Heteroaryldihydropyrimidine derivatives and methods of treating hepatitis B infections” (Janssen Pharmaceutica NV, priority 2018, dated 2023).
Read-outs that look alike come from different tables or passages of the source.

Key:
[1] = tested on: HBV; experiment: HBV inhibitory activity: HBV DNA in the culture medium of HepG2.2.15 cells by q-PCR; assay type: cell-based; settings: HepG2.2.15 cells, 6 days of compound treatment, HBV DNA in culture medium by q-PCR, highest concentration 10 μM, read-out: EC50
Outline: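 Supernatant HBV DNA quantified by q-PCR after a 6-day compound exposure, with one mid-course medium change, of HepG2.2.15 cells (stably integrated HBV; 40,000 per well, 2% FBS). Eight-point 3-fold series topped at 10 μM for antiviral EC50; separate plates of 5,000 cells per well with 100 μM top give CC50.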

[2] = tested on: HepG2.2.15 cells; experiment: Cytotoxicity determination in HepG2.2.15 cells (CCK-8); assay type: cell-based; settings: 6 days of compound treatment, CCK-8, highest concentration 100 μM
Outline: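 CC50 is from CCK-8 absorbance (450 nm, 630 nm reference) after 2.5 h with reagent. Before that, compounds were applied for six days, top concentration 100 μM, eight threefold dilutions, one mid-course medium change, to stably HBV-integrated HepG2.2.15 cells plated at 5,000/well in 2% FBS.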

[3] = Hepatitis B virus, HepG2.2.15, 144 h

COC(=O)C1=C(C2CCC(NS(C)(=O)=O)C2)NC(c2nccs2)=NC1c1cccc(F)c1Cl (single isomer, unassigned) [Compound 61D, Methyl 4-(2-chloro-3-fluorophenyl)-6-(3-(methylsulfonamido)-cyclopentyl)-2-(thiazol-2-yl)-1,4-dihydropyrimidine-5-carboxylate] was tested, and the EC50 [1] was 35 nM and the CC50 [2] was 33400 nM.
CCOC(=O)C1=C(C2CCN(S(=O)(=O)[C@H]3C[C@](C)(C(=O)O)C3)CC2)NC(c2nccs2)=NC1c1ccc(F)c(F)c1Cl (stereo partly drawn) [Compound 270A, (trans)-3-((4-(6-(2-Chloro-3,4-difluorophenyl)-5-(ethoxycarbonyl)-2-(thiazol-2-yl)-3,6-dihydropyrimidin-4-yl)piperidin-1-yl)sulfonyl)-1-methylcyclobutanecarboxylic Acid] showed an EC50 [1] of 12 nM and a CC50 [2] of 9200 nM.
For CCOC(=O)C1=C(C2CCN(S(=O)(=O)C3CC(C)(C(=O)O)C3)CC2)NC(c2nccs2)=NC1c1ccc(F)cc1Cl (stereo not drawn) [Compound 272A, (trans)-3-((4-(6-(2-Chloro-4-fluorophenyl)-5-(ethoxycarbonyl)-2-(thiazol-2-yl)-3,6-dihydropyrimidin-4-yl)piperidin-1-yl)sulfonyl)-1-methylcyclobutanecarboxylic Acid], the EC50 [1] was 17 nM and the CC50 [2] was 16600 nM.
COC(=O)C1=C(C2CCN(S(=O)(=O)C3CCC(C)(C(=O)O)CC3)CC2)NC(c2nccs2)=NC1c1ccc(F)c(F)c1Cl (single isomer, unassigned) [Compound 210B, (cis)-4-((4-(6-(2-chloro-3,4-difluorophenyl)-5-(methoxycarbonyl)-2-(thiazol-2-yl)-3,6-dihydropyrimidin-4-yl)piperidin-1-yl)sulfonyl)-1-methylcyclohexanecarboxylic Acid] showed an EC50 [1] of 44 nM and a CC50 [2] of 9700 nM.
In the case of COC(=O)C1=C(C2CCN(S(=O)(=O)[C@H]3C[C@](C)(C(=O)O)C3)CC2)NC(c2nccs2)=NC1c1cccc(F)c1Cl (stereo partly drawn) [Compound 274A, (trans)-3-((4-(−6-(2-Chloro-3-fluorophenyl)-5-(methoxycarbonyl)-2-(thiazol-2-yl)-3,6-dihydropyrimidin-4-yl)piperidin-1-yl)sulfonyl)-1-methylcyclobutanecarboxylic Acid], the EC50 [1] is reported as 42 nM and the CC50 [2] is reported as 31400 nM.
Work on COC(=O)C1=C(C2CCN(S(=O)(=O)CC3(C)CCC(C(=O)O)CC3)CC2)NC(c2nccs2)=NC1c1ccc(F)cc1Cl (single isomer, unassigned) [Compound 450A, (cis)-4-(((4-(6-(2-Chloro-4-fluorophenyl)-5-(methoxycarbonyl)-2-(thiazol-2-yl)-3,6-dihydropyrimidin-4-yl)piperidin-1-yl)sulfonyl)methyl)-4-methylcyclohexanecarboxylic Acid] yielded an EC50 [1] of 17 nM and a CC50 [2] of 12800 nM.
With CCCS(=O)(=O)N1CCC(C2=C(C(=O)OC)C(c3ccc(F)cc3Cl)N=C(c3nccs3)N2)C1 (single isomer, unassigned) [Compound 256D, Methyl 4-(2-chloro-4-fluorophenyl)-6-(−1-(propylsulfonyl)pyrrolidin-3-yl)-2-(thiazol-2-yl)-1,4-dihydropyrimidine-5-carboxylate] the EC50 [1] was 964 nM and the CC50 [2] was 22900 nM.
For COC(=O)C1=C([C@H]2CC[C@H](NS(C)(=N)=O)CC2)NC(c2nccs2)=NC1c1ccc(F)cc1Cl (single isomer, unassigned) [Compound 287D, Methyl 4-(2-chloro-4-fluorophenyl)-6-((trans)-4-(methylsulfonoimidamido)cyclohexyl)-2-(thiazol-2-yl)-1,4-dihydropyrimidine-5-carboxylate], the EC50 [1] was 67 nM and the CC50 [2] was 60000 nM.
In the case of CCOC(=O)C1=C([C@@H]2CC[C@H](C(=O)O)OC2)NC(c2nccs2)=NC1c1ccc(F)cc1Cl (single isomer, unassigned) [Compound 265H, (cis)-5-(−6-(2-Chloro-4-fluorophenyl)-5-(ethoxycarbonyl)-2-(thiazol-2-yl)-3,6-dihydropyrimidin-4-yl)tetrahydro-2H-pyran-2-carboxylic Acid], the EC50 [1] is reported as 214 nM and the CC50 [2] is reported as over 100000 nM.
With CCOC(=O)C1=C(C2CCN(S(=O)(=O)C3CC(C)(C(=O)O)C3)CC2)NC(c2nccs2)=NC1c1cccc(F)c1Br (single isomer, unassigned) [Compound 414C, (trans)-3-((4-(6-(2-Bromo-3-fluorophenyl)-5-(ethoxycarbonyl)-2-(thiazol-2-yl)-3,6-dihydropyrimidin-4-yl)piperidin-1-yl)sulfonyl)-1-methylcyclobutanecarboxylic Acid] the EC50 [1] was 19 nM and the CC50 [2] was 17300 nM.
With COC(=O)C1=C(C2CCN(S(=O)(=O)C3CC(C)(C(=O)O)C3)CC2)NC(c2nccs2)=NC1c1ccc(F)cc1Br (single isomer, unassigned) [Compound 410D, cis-3-((4-(6-(2-Bromo-4-fluorophenyl)-5-(methoxycarbonyl)-2-(thiazol-2-yl)-3,6-dihydropyrimidin-4-yl)piperidin-1-yl)sulfonyl)-1-methylcyclobutanecarboxylic Acid] the EC50 [1] was 43 nM and the CC50 [2] was 23700 nM.
COC(=O)C1=C(C2CCC(NS(C)(=O)=O)C2)NC(c2nccs2)=NC1c1cccc(F)c1Cl (single isomer, unassigned) [Compound 61B, Methyl 4-(2-chloro-3-fluorophenyl)-6-(3-(methylsulfonamido)-cyclopentyl)-2-(thiazol-2-yl)-1,4-dihydropyrimidine-5-carboxylate] was tested, and the EC50 [1] was 333 nM and the CC50 [2] was over 20000 nM.
For COC(=O)C1=C(C2COC(CO)C2)NC(c2nccs2)=NC1c1cccc(F)c1Cl (single isomer, unassigned) [Compound 219H, Methyl 4-(2-chloro-3-fluorophenyl)-6-(5-(hydroxymethyl)-tetrahydrofuran-3-yl)-2-(thiazol-2-yl)-1,4-dihydropyrimidine-5-carboxylate], the EC50 [1] was 334 nM and the CC50 [2] was 1500 nM.
CCOC(=O)C1=C(C2CCN(S(=O)(=O)C3CC(C)(C(=O)O)C3)CC2)NC(c2nccs2)=NC1c1ccc(F)c(F)c1Cl (stereo not drawn) [Compound 270B, (cis)-3-((4-(6-(2-Chloro-3,4-difluorophenyl)-5-(ethoxycarbonyl)-2-(thiazol-2-yl)-3,6-dihydropyrimidin-4-yl)piperidin-1-yl)sulfonyl)-1-methylcyclobutanecarboxylic Acid] was tested, and the EC50 [1] was 17 nM and the CC50 [2] was 10300 nM.
COC(=O)C1=C(C2CCN(S(=O)(=O)CC3(C)CCC(C(=O)O)CC3)CC2)NC(c2nccs2)=NC1c1ccc(F)cc1Cl (single isomer, unassigned) [Compound 450B, (trans)-4-(((4-(6-(2-Chloro-4-fluorophenyl)-5-(methoxycarbonyl)-2-(thiazol-2-yl)-3,6-dihydropyrimidin-4-yl)piperidin-1-yl)sulfonyl)methyl)-4-methylcyclohexanecarboxylic Acid] was tested, and the EC50 [1] was 7 nM and the CC50 [2] was 14000 nM.
With COC(=O)C1=C(C2CCNC(=O)C2)NC(c2nccs2)=NC1c1ccc(F)cc1Cl (single isomer, unassigned) [Compound 3A, Methyl 4-(2-chloro-4-fluorophenyl)-6-(2-oxopiperidin-4-yl)-2-(thiazol-2-yl)-1,4-dihydro-pyrimidine-5-carboxylate] the EC50 [1, 3] was 126 nM and the CC50 [2] was 35900 nM.
CCOC(=O)C1=C(C2CCN(S(=O)(=O)C3CC(C)(C(=O)O)C3)CC2)NC(c2nccs2)=NC1c1cccc(F)c1C (single isomer, unassigned) [Compound 429C, (trans)-3-((4-(−5-(Ethoxycarbonyl)-6-(3-fluoro-2-methylphenyl)-2-(thiazol-2-yl)-3,6-dihydropyrimidin-4-yl)piperidin-1-yl)sulfonyl)-1-methylcyclobutanecarboxylic Acid] was tested, and the EC50 [1] was 66 nM and the CC50 [2] was 25500 nM.
Work on COC(=O)C1=C(C2CCN(S(=O)(=O)C3CC(C)(C(=O)O)C3)CC2)NC(c2nccs2)=NC1c1cccc(F)c1Br (stereo not drawn) [Compound 278C, (trans)-3-((4-(6-(2-bromo-3-fluorophenyl)-5-(methoxycarbonyl)-2-(thiazol-2-yl)-3,6-dihydropyrimidin-4-yl)piperidin-1-yl)sulfonyl)-1-methylcyclobutanecarboxylic Acid] yielded an EC50 [1] of 45 nM and a CC50 [2] of 18900 nM.
COC(=O)C1=C([C@H]2CCC[C@@H](CO)C2)NC(c2nccs2)=NC1c1ccc(F)cc1Cl (single isomer, unassigned) [Compound 173C, Methyl 4-(2-chloro-4-fluorophenyl)-6-((cis)-3-(hydroxymethyl)cyclohexyl)-2-(thiazol-2-yl)-1,4-dihydropyrimidine-5-carboxylate] showed an EC50 [1] of 107 nM and a CC50 [2] of 9900 nM.
COC(=O)C1=C(C2CCN(C)C(=O)C2)NC(c2nccs2)=NC1c1ccc(F)cc1Cl (single isomer, unassigned) [Compound 1A, Methyl 4-(2-chloro-4-fluorophenyl)-6-(1-methyl-2-oxopiperidin-4-yl)-2-(thiazol-2-yl)-1,4-dihydropyrimidine-5-carboxylate] was tested, and the EC50 [1] was 386 nM and the CC50 [2] was 90200 nM.
For COC(=O)C1=C(C2CCN(S(C)(=O)=O)C2)NC(c2nccs2)=NC1c1ccc(F)cc1Cl (single isomer, unassigned) [Compound 65A, 4-(2-Chloro-4-fluoro-phenyl)-6-(1-methanesulfonyl-pyrrolidin-3-yl)-2-thiazol-2-yl-1,4-dihydro-pyrimidine-5-carboxylic Acid Methyl Ester], the EC50 [1, 3] was 425 nM and the CC50 [2] was 69100 nM.
